Data on three molecules can be found in US7501281B2, “Compositions, methods and kits related to thrombin, Notch signaling and stamatogenesis and growth of stem cells” (Maine Medical Center Research Institute, priority 2003, dated 2009).

Assay [1] deals with Notch-dependent CSL1 activity in full-length Jagged1 NIH 3T3 cell transfectants. As to the kind of experiment: Dual Luciferase Reporter Assay of CSL1-dependent transcription. The format is cell-based, murine. In general terms: A reporter such as luciferase makes a cellular process visible.
Assay [2] deals with mouse NSCS populations. As to the kind of experiment: Clonogenic differentiation assay of NCSC, pre-incubation with Notch ligand then BMP2 challenge. Format: cell-based. As for the experimental part:
Clonogenic assays were performed as described (Stemple et al., 1992, Cell 71:973-985). Briefly, populations of murine NCSC were plated at a clonal density and maintained for a maximum of 14 days in Morrison media supplemented with 15% chick embryo extract (Morrison et al., 1999, Cell 96:737-749). The resulting clones were fixed in an acetic acid:ethanol solution (2:1) and stained with antibodies against peripherin (Chemicon) to detect neurons, smooth muscle actin (Sigma) to detect myofibroblasts, and GFAP (Chemicon) to detect Schwann cells. Clones were scored based on the appearance of just one phenotypic representative. The number and percentage of clones containing neurons only (N), Schwann cells only (S), myofibroblasts only (M), N+S, N+M, N+S+M, and S+M were scored at day 14 unless otherwise stated. The production of each representative phenotype in each individual clone was also scored to complement the clonal population assay.
NCSC Retain Neurogenic capacity in the presence of sJ1. A clonogenic differentiation assay was performed using mouse NSCS populations as described previously (Kubu et al., 2002, Dev. Biol. 244:199-214; Stemple et al., 1992, Cell 71:973-985). The cells were incubated in Stemple media (Stemple et al., 1992) with or without 5 nM sDl1 or 7.5 nM sJ I for the time periods set forth in Table 1. After the initial incubation period, cells were washed and neuronal differentiation was challenged in the presence of 1 ng/ml BMP2 for an additional seven days. The resulting clones were fixed and stained for detection of neural crest markers. The data disclosed in Table 1 is presented as the percentage of glial-only, neuron-only, and neuron colonies containing either smooth muscle or glial markers as the mean±standard deviation (SD) of three experiments originating from three independent cell isolations. Note the retention of neurogenic differentiation capacity in sJ1-treated cells (*=p<0.01) compared with the sDl1-treated cells.

Assay [3] deals with NCSC populations. Nature of the assay: GFAP immunoreactivity as onset of glial-specific clonogenic differentiation. Format: cell-based, murine. The method, then:
FIG. 12A depicts an RT-PCR analysis of FGF1.A mRNA expression. Briefly, populations of murine NCSC were treated for 48 hours in Morrison media supplemented with either 7.5 nM sJ1, 5.0 nM sDl1, 10 μg/ml of α-thrombin or 5 μg/ml TRAP, and the steady-state levels of the FGF1.A mRNA were measured using RT-PCR as described elsewhere herein. […] Clonogenic differentiation assays of murine NCSC populations were assessed by maintaining the cells in Morrison media supplemented with increasing concentrations of either sJ1 or sDl1. […] Clonogenic differentiation assays of NCSC populations was assessed by maintaining the cells in Morrison media supplemented with either 7.5 nM sJ1 (▪-▪) or 5 nM sDl1 (▴-▴). The onset of gliogenic differentiation was determined by GFAP immunohistochemistry. […]
Since sJ1 enabled the retention of NCSC neurogenic potential over a 7 day period of exposure (Table 1), glial fibrillary acidic protein (GFAP) immunoreactivity was utilized as a measure of the onset of glial-specific clonogenic differentiation (Morrison et al., 1999, Cell 96:737-749; Stemple et al., 1992, Cell 71:973-985). […] As previously reported (Morrison et al., 2000, Cell 101:499-510), after 48 hours of exposure to sDl1, GFAP immunoreactive cells were detected in NCSC populations (FIG. 12C). […]

Assay [4] deals with HEY and Deltex transcripts in NCSC populations. As to the kind of experiment: RT-PCR analyses of Notch down-stream effectors. Format: cell-based. The text has this:
It is also interesting that sJ1 and sDl1 induce distinctive phenotypic outcomes. Whereas sJ1:Notch interactions enable stamatogenesis, sDl1:Notch associations lead to an immediate loss of neurogenic potential. […] Likewise, Delta1, but not Jagged1, is able to promote the in vitro development of human cord blood-derived progenitor cells with a T cell/natural killer cell phenotype (Jaleco et al., 2001, J. Exp. Med. 194:991-1002), and sJ1 is able to promote the clonal expansion of hematopoietic stem cells in vitro (Vas et al., 2004, J. Leukoc. Biol., in press). […] Thus, it appears that sJ1 and sDl1 induce different cell fate decisions in NCSC populations. […] Thus, without wishing to be bound by any particular theory, the levels of Notch signaling may be paramount in regulating the undifferentiated expansion of multipotential neural stem cells, and thrombin and/or sJ1, may be one of the key elements in this process that enable stamatogenesis to occur.

[5] abbreviates: 24 hrs with 5 nM sDl1 or 7.5 nM sJ1, then 1 ng/ml BMP2 for seven days, percentage of colonies, mean±SD.
Where [6] appears, read: 72 hrs with 7.5 nM sJ1, then 1 ng/ml BMP2 for seven days.
[7] abbreviates: 120 hrs with 7.5 nM sJ1, then 1 ng/ml BMP2 for seven days.
Setting [8] is: 168 hrs with 7.5 nM sJ1, then 1 ng/ml BMP2 for seven days.

Marks after values point to notes of the source that are not given here.

As for Thrombin, the “effect on Notch-dependent CSL1 activity” value in assay [1] is listed as “reduce the level of Notch-dependent CSL1 activity in a dose-dependent manner”. In addition, the “CSL1-dependent transcription, of the control level” value in assay [1] (maximal attenuation by thrombin) is recorded as “approximately 75%”.
With “sJ1: Soluble Jagged1, amino acid residues from about 1 to 1067 (SEQ ID NO:3) of full-length Jagged1”, the Glial-Only in assay [2] (setting [5]) came out at 0%; in assay [2] (setting [6]), 0.8 ± 1.4%*; in assay [2] (setting [7]), 5.82 ± 3.4%*; in assay [2] (setting [8]) it was 13.3 ± 4.5%*. Further, the Neuron-Containing in assay [2] (setting [5]) turned out to be 71.4 ± 6.2%*; in assay [2] (setting [6]) it was 74.8 ± 16.3%*; in assay [2] (setting [7]) it was 52.01 ± 14.1%*; in assay [2] (setting [8]), 35.03 ± 9.1%. Moreover, the Neuron-Only in assay [2] (setting [5]) came out at 54.4 ± 8.4%*; in assay [2] (setting [6]), 42.8 ± 6.6%*; in assay [2] (setting [7]), 13.43 ± 6.5%*; in assay [2] (setting [8]), 6.5 ± 1.3%*. Also, in assay [3] (day 7), the “percentage of the colony expressing the glial-specific protein GFAP” value was 23±5%. In addition, the “CSL1-dependent transcription, of the control level” value in assay [1] (sJ1 expression (sJ1 NIH 3T3 cell transfectants)) is reported as “approximately 25%”. In addition, in assay [4], the “steady-state levels of HEY and Deltex transcripts” value is “suppression”.

B1: sDl1: soluble non-transmembrane form of the Notch ligand Delta1 (protein)
chain: QVWSSGVFELKLQEFVNKKGLLGNRNCCRGGAGPPPCACRTFFRVCLKHYQASVSPEPPCTYGSAVTPVLGVDSFSLPDGGGADSAFSNPIRFPFGFTWPGTFSLIIEALHTDSPDDLATENPERLISRLATQRHLTVGEEWSQDLHSSGRTDLKYSYRFVCDEHYYGEGCSVFCRPRDDAFGHFTCGERGEKVCNPGWKGPYCTEPICLPGCDEQHGFCDKPGECKCRVGWQGRYCDECIRYPGCLHGTCQQPWQCNCQEGWGGLFCNQDLNYCTHHKPCKNGATCTNTGQGSYTCSCRPGYTGATCELGIDECDPSPCKNGGSCTDLENSYSCTCPPGFYGKICELSAMTCADGPCFNGGRCSDSPDGGYSCRCPVGYSGFNCEKKIDYCSSSPCSNGAKCVDLGDAYLCRCQAGFSGRHCDDNVDDCASSPCANGGTCRDGVNDFSCTCPPGYTGRNCSAPVSRCEHAPCHNGATCHERGHRYVCECARGYGGPNCQFLLPELPPGPAVVDLTEKLEGQGGPFPW
modifications: left off: small tags and cut ends
notes: soluble non-transmembrane form of the Notch ligand Delta1
In assay [2] (setting [5]), B1 yielded a Glial-Only of 57.8 ± 9.9%, a Neuron-Containing of 7.0 ± 5.7% and a Neuron-Only of 0%. Besides, the “time of exposure at which GFAP immunoreactive cells were detected” value in assay [3] is 48 h. Besides, in assay [4], the “steady-state levels of HEY and Deltex transcripts” value was “not”.
